Consider 23 molecules from ChEMBL document CHEMBL4390673, “Identification of Novel Coumestan Derivatives as Polyketide Synthase 13 Inhibitors against Mycobacterium tuberculosis. Part II” (J Med Chem, 2019).

A short description of data set [1]: in vitro. The conditions noted are these: human, liver microsomes. In general terms: Liver microsomes are a subcellular fraction often used to study metabolism.
Description: Half life in human liver microsomes
Data set [2] in a line: in vitro. As to conditions: human, liver microsomes. The source holds these as a separate data set.
Description: Intrinsic clearance in human liver microsomes
Data set [3] in a line: in vitro. The conditions noted are these: human, liver microsomes. This is another data set of the same source.
Description: Intrinsic clearance in human liver measured from intrinsic clearance in human liver microsomes
Data set [4] can be described thus: in vitro. The conditions noted are these: human, liver microsomes. This is another data set of the same source.
Description: Stability in human liver microsomes assessed as parent compound remaining measured after 60 mins
The test system of data set [5] is Mycobacterium tuberculosis. The data set is described as follows: Antitubercular activity against Mycobacterium tuberculosis H37Rv exposed to serially diluted serum from 10 mg/kg, po treated BALB/c mouse assessed as reduction in bacterial growth measured after 7 days by microplate alamar blue assay. The data set is classed as functional, organism-based. (The colour change of resazurin is a common sign of viable cells or microbes.)

For data set [6], the system named is Mycobacterium tuberculosis. Put plainly: Antitubercular activity against Mycobacterium tuberculosis H37Rv by microdilution method. The data set is classed as functional. On the technique in general: Broth dilution looks for growth in wells or tubes with falling amounts of substance.
The test system of the next data set is Vero. Put plainly: Cytotoxicity against African green monkey Vero cells by microplate alamar blue assay. As to conditions: Chlorocebus sabaeus. Format: cell-based.
Data set [7] can be described thus: Selectivity index, ratio of IC50 for African green monkey Vero cells to MIC=. The conditions noted are these: read-out: Ratio IC50. Format: toxicity.
The subject of data set [8] is Mycobacterium tuberculosis. The data set is described as follows: Antitubercular activity against Mycobacterium tuberculosis H37Rv measured after 7 days by alamar blue assay. Format: functional. The conditions noted are these: 168 h.
In another data set the test system is Bacillus subtilis. The data set is described as follows: Growth inhibition of Bacillus subtilis 168. Format: organism-based, subsp. subtilis str. 168.
Data set [9] deals with Escherichia coli. Put plainly: Growth inhibition of Escherichia coli AB1157. Format: organism-based. The conditions noted are these: in vivo.
The subject of data set [10] is Escherichia coli. Put plainly: Growth inhibition of Escherichia coli DH5[alpha]. The data set is classed as organism-based. As to conditions: in vivo.
The test system of data set [11] is Mycobacterium tuberculosis. The data set is described as follows: Antitubercular activity against Mycobacterium tuberculosis H37Rv measured after 7 days under aerobic condition by resazurin dye based assay. Format: functional. As to conditions: 168 h.
The test system of data set [12] is Mycobacterium tuberculosis. The data set is described as follows: Antitubercular activity against Mycobacterium tuberculosis H37Rv. The data set is classed as functional.
Data set [13] deals with Mycobacterium tuberculosis. The data set is described as follows: Antitubercular activity against Mycobacterium tuberculosis H37Rv exposed to serially diluted serum from 100 mg/kg, po treated BALB/c mouse assessed as reduction in bacterial growth measured after 7 days by microplate alamar blue assay. Format: functional, organism-based.
The test system of data set [14] is Mycobacterium tuberculosis. Put plainly: Antitubercular activity against Mycobacterium tuberculosis H37Rv after 6 days by resazurin dye based fluorescence assay. As to conditions: 144 h.
Data set [15] in a line: Cytotoxicity against human QSG7701 cells measured after 48 hrs by CellTiter 96 AQueous One Solution Cell Proliferation assay. The data set is classed as cell-based. As to conditions: QSG7701, 48 h.
Another data set deals with MRC5. The data set is described as follows: Cytotoxicity against human MRC5 cells measured after 48 hrs by CellTiter 96 AQueous One Solution Cell Proliferation assay. The conditions noted are these: MRC5, 48 h. Format: cell-based.
A further data set deals with HFL1. The data set is described as follows: Cytotoxicity against HFL1 cells measured after 48 hrs by CellTiter 96 AQueous One Solution Cell Proliferation assay. Format: cell-based. The conditions noted are these: Homo sapiens, HFL1, 48 h.
A further data set has as its system HEK293. The data set is described as follows: Cytotoxicity against HEK293 cells measured after 48 hrs by CellTiter 96 AQueous One Solution Cell Proliferation assay. The data set is classed as cell-based. The conditions noted are these: Homo sapiens, HEK293, 48 h.
The test system of data set [16] is Mycobacterium tuberculosis. Put plainly: Antitubercular activity against Mycobacterium tuberculosis H37Rv exposed to 1:1024 diluted serum from 50 mg/kg, po treated BALB/c mouse assessed as reduction in bacterial growth measured after 7 days by microplate alamar blue assay. Format: functional, organism-based.
The subject of data set [17] is Mycobacterium tuberculosis. Put plainly: Bactericidal activity against Mycobacterium tuberculosis H37Rv assessed as reduction in colony forming units incubated for 14 days followed by replating on 7H11 agar plates and measured by broth dilution method. The data set is classed as functional.
A further data set has as its system Staphylococcus aureus. The data set is described as follows: Growth inhibition of Staphylococcus aureus Newman. The data set is classed as organism-based. As to conditions: in vivo.

In brackets after ≈: the same amount, converted by molar mass. Activity calls are given as the source filed them. Some results are limits rather than exact numbers.

Take `CCOC(=O)c1c(-c2ccccc2)oc2ccc(O)c(CN3CCCCC3)c12`: the half-life (in general, the time needed for the level to fall by half in the phase considered) in “in vitro [1]” came to 53 min. In addition, the CLint scaled (usually the rate of metabolic loss divided by the concentration) in “in vitro [2]” was found to be 26.2 mL/min/kg; in the data set “in vitro [3]”, 23.6 mL/min/kg. In addition, the amount remaining (usually the share of the starting amount still present when the sample was taken) at 1 h in the data set “in vitro [4]” came out at 46.6%.

Take `NNC(=O)c1ccncc1`: in [5], the result was Active.

In turn, `CCOC(=O)c1c(-c2ccc(O)cc2)oc2ccc(O)c(CN3CCCCC3)c12` showed a CLint scaled in “in vitro [3]” of 66.3 mL/min/kg. The molecule also had a share remaining at 1 h in the data set “in vitro [4]” of 10.8%.

`COC(=O)c1c(NC(=O)c2c(F)c(F)c(F)c(F)c2F)sc2c1CCCCC2`: in [6], the MIC turned out to be 1 µM (≈ 0.419 µg/mL).

Regarding `O=c1oc2ccc(O)cc2c2oc3ccc(O)c(CN4CCCCC4)c3c12`, in the data set with Vero, the IC50 (commonly the point on the concentration scale where inhibition reaches its midpoint) was found to be 4 µg/mL (≈ 10.9 µM). For the same molecule, in [7], the selectivity ratio was 8.

For `O=c1oc2ccccc2c2oc3ccc(O)c(CN4CCCCC4)c3c12`, the half-life in “in vitro [1]” was found to be 21.4 min. Further, the CLint scaled in “in vitro [2]” was found to be 64.9 mL/min/kg; in the data set “in vitro [3]”, 58.4 mL/min/kg. Also, the amount remaining at 1 h in “in vitro [4]” was 14.5%.

With `CCOC(=O)C1=C(NC(=O)c2c(F)c(F)c(F)c(F)c2F)SC2CN(CC)CCC12` (centres undefined), in [8], the MIC was 0.23 µM (≈ 0.104 µg/mL).

For the molecule `CN[C@H](CC(C)C)C(=O)N[C@H]1C(=O)N[C@@H](CC(N)=O)C(=O)N[C@H]2C(=O)N[C@H]3C(=O)N[C@H](C(=O)N[C@H](C(=O)O)c4cc(O)cc(O)c4-c4cc3ccc4O)[C@H](O)c3ccc(c(Cl)c3)Oc3cc2cc(c3O[C@@H]2O[C@H](CO)[C@@H](O)[C@H](O)[C@H]2O[C@H]2C[C@](C)(N)[C@H](O)[C@H](C)O2)Oc2ccc(cc2Cl)[C@H]1O` [VANCOMYCIN], the MIC in the data set with Bacillus subtilis, in the data set with Escherichia coli [9] and against Escherichia coli [10] was > 25 µg/mL each time.

Regarding `C=CCCCCCCC[C@H]1C(=O)O[C@@H]1CCCCCNC(=O)c1ccc(N(C)C)cc1`, in data set [11], the MIC came to 0.68 µg/mL (≈ 1.59 µM).

Take `CC(C)(C)c1cc(O)c(CN2CCCCC2)c2c1oc1c3cc(O)ccc3oc(=O)c12`: the IC50 in the data set on Vero amounted to 8 µg/mL (≈ 19 µM). The selectivity ratio in [7] was determined as 64.

`CCOC(=O)c1c(-c2ccccc2)oc2ccc(O)c(CN3CCC(C)CC3)c12` showed an MIC in [12] of 1 µg/mL (≈ 2.54 µM).

Molecule `C[C@]12CC[C@H]3[C@@H](CCC4=CC(=O)CC[C@@]43C)[C@@H]1CC[C@@H]2O` [TESTOSTERONE] had a CLint scaled in the data set “in vitro [3]” of 62.8 mL/min/kg. Also, the fraction remaining at 1 h in “in vitro [4]” came to 12.5%.

For the molecule `CNC(=O)c1c(-c2ccc(O)cc2)oc2ccc(O)c(CN3CCCCC3)c12`, the result in [13] was Active. In data set [14], this molecule showed an MIC of 0.0313 µg/mL (≈ 0.0823 µM).

`CC1CCCCN1Cc1c(O)ccc2oc3c4ccccc4oc(=O)c3c12` (centres undefined) registered a 50% inhibitory concentration (IC50) in the data set on Vero of 16 µg/mL (≈ 44 µM). In data set [7], the selectivity ratio was 16.

Consider `O=C(O)Cc1ccccc1Nc1c(Cl)cccc1Cl` [DICLOFENAC], for which, in “in vitro [1]”, the half-life is 11.9 min. Also, the CLint scaled in the data set “in vitro [3]” amounted to 105 mL/min/kg.

As to `O=c1oc2ccccc2c2oc3ccc(O)c(CN4CCCC4)c3c12`, in the data set on Vero, the IC50 came out at 8 µg/mL (≈ 23.9 µM). For the same molecule, the selectivity ratio in [7] stood at 16.

As for `CC(C)(C)c1cc(O)c(CN2CCCCC2)c2c1oc1c3ccc(O)cc3oc(=O)c12`, the IC50 amounted to 34.1 µM in data set [15]; 8 µg/mL (≈ 19 µM) with Vero; 30.6 µM in the data set with MRC5; 22.3 µM in the data set with HFL1; 33.6 µM in the data set with HEK293. Further, in [7], the selectivity ratio was found to be 2048. Moreover, the MIC with Bacillus subtilis, with Escherichia coli [9] and with Escherichia coli [10] was > 25 µg/mL each time. Further, the result in [13] was Active. The result in data set [16] was inactive.

`Cc1cc(O)c(CN2CCCCC2)c2c1oc1c3ccccc3oc(=O)c12` registered an IC50 in the data set with Vero of 8 µg/mL (≈ 22 µM). Further, in data set [7], the selectivity ratio was found to be 64.

In turn, `CCOC(=O)c1c(NC(=O)c2c(F)c(F)c(F)c(F)c2F)sc(C(N)=O)c1C` displayed an MIC in [6] of 0.5 µM (≈ 0.211 µg/mL).

The molecule `CC(C)(C)c1cc(O)c(CN2CCCCC2)c2c1oc1c3ccccc3oc(=O)c12` yielded an IC50 with Vero of 16 µg/mL (≈ 39.5 µM). Besides, the selectivity ratio in data set [7] fell in the range of 128 to 256.

In the case of `O=c1oc2cc(O)ccc2c2oc3ccc(O)c(CN4CCCCC4)c3c12`, the MBC99 in data set [17] was in the range of 0.0039 to 0.0078 µg/mL. Further, the IC50 in data set [15] was 40.1 µM; in the data set with Vero it was 4 µg/mL (≈ 10.9 µM); with MRC5 it was > 50 µM; in the data set with HFL1 it was > 50 µM; with HEK293, > 50 µM. Besides, in data set [7], the selectivity ratio came out at 1024. Besides, the MIC against Staphylococcus aureus, against Bacillus subtilis, with Escherichia coli [9] and in the data set on Escherichia coli [10] was > 25 µg/mL each time. Besides, the outcome in [16] was Active. This molecule yielded a fraction remaining at 1 h in the data set “in vitro [4]” of 73.6%.

As to `CC1CCN(Cc2c(O)ccc3oc4c5ccccc5oc(=O)c4c23)CC1`, the IC50 with Vero worked out at 16 µg/mL (≈ 44 µM). Also, the selectivity ratio in data set [7] was determined as 32.

Take `CN(C)[C@@H]1C(O)=C(C(N)=O)C(=O)[C@@]2(O)C(O)=C3C(=O)c4c(O)cccc4[C@@](C)(O)[C@H]3C[C@@H]12` [TETRACYCLINE]: the MIC with Bacillus subtilis is > 25 µg/mL.
